The term inhibition denotes the relative decrease from the control value, in per cent. As usually defined, the IC50 is the midpoint of a concentration-inhibition curve.

Where a name gives a salt, the structure may show the parent alone.

T1 sequence (P27487 whole entry, species assumed): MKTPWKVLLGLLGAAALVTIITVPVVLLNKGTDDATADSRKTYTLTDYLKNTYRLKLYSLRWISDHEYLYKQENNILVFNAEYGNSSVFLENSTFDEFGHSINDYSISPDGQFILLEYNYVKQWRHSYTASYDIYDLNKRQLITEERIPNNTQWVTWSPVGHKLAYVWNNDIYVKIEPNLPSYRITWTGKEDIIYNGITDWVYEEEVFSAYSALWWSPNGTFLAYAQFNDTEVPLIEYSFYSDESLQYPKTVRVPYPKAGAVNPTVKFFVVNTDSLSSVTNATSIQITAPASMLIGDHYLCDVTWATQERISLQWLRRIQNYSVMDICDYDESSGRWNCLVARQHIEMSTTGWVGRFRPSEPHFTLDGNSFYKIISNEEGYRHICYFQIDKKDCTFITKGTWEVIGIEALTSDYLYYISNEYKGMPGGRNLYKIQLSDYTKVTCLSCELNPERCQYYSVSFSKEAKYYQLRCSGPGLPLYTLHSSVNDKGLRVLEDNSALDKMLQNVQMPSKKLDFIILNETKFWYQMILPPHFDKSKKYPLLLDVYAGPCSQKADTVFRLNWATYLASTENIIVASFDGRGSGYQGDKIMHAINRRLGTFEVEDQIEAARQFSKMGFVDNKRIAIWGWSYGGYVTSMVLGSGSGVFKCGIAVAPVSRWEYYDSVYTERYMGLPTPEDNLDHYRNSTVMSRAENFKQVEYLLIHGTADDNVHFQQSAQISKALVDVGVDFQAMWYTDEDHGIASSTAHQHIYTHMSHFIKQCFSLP

One assay addresses T1, DPP-IV (Homo sapiens, UniProt P27487).
T1 construct: purchased Enzyme Systems Products SPE-01
Put plainly: In vitro assay for dipeptidyl peptidase inhibition. The class given is biochemical. Particulars: at 300 nM; n-value given in brackets.
On to `CCOc1ncc2c(n1)CCN(c1ncnc(N3C[C@H](N)[C@@H](N4CCCCC4=O)C3)n1)C2.O=C(O)C(F)(F)F` [Example 72, 1-((3S,4S)-4-Amino-1-(4-(2-ethoxy-7,8-dihydropyrido[4,3-d]pyrimidin-6(5H)-yl)-1,3,5-triazin-2-yl)pyrrolidin-3-yl)piperidin-2-onetrifluoroacetate], for which the “DPP-IV Percent Inhibition at 300 nM” value was 13.1%(4).

Still in this assay, the particulars now being: at 300 nM; n-value given in brackets; read-out: DPP-IV Percent Inhibition at 300 nM.
With `Cn1nc(C(F)(F)F)c2c1CCN(c1ncnc(N3C[C@H](N)[C@@H](N4CCCCC4=O)C3)n1)C2` [Example 67, 1-((3S,4S)-4-amino-1-(4-(1-methyl-3-(trifluoromethyl)-6,7-dihydro-1H-pyrazolo[4,3-c]pyridin-5(4H)-yl)-1,3,5-triazin-2-yl)pyrrolidin-3-yl)piperidin-2-one], the inhibition at 0.3 µM is 17.9%.
On the same count and under the same terms, as for `N[C@H]1CN(c2cc(N3CCc4noc(C(F)(F)F)c4C3)ncn2)C[C@@H]1N1CCCCC1=O` [Example 81, 1-((3S,4S)-4-amino-1-(6-(3-(trifluoromethyl)-6,7-dihydroisoxazolo[4,3-c]pyridin-5(4H)-yl)pyrimidin-4-yl)pyrrolidin-3-yl)piperidin-2-one trifluoroacetate], the figure is 44.5%; as for `N[C@H]1CN(c2cc(OC3CCCC3)ncn2)C[C@@H]1N1CCCCC1=O` [Example 91, 1-((3S,4S)-4-Amino-1-(6-(cyclopentyloxy)pyrimidin-4-yl)pyrrolidin-3-yl)piperidin-2-onetrifluoroacetate], 32.2%.

Still in this assay, the particulars now being: n-value given in brackets; read-out: DPP-IV IC50.
Consider `N[C@H]1CN(c2ncnc(N3CCS(=O)(=O)CC3)n2)C[C@@H]1N1CCCCC1=O` [Example 68, 1-{(3S,4S)-4-Amino-1-[4-(1,1-dioxo-6-thiomorpholin-4-yl)-[1,3,5]triazin-2-yl]-pyrrolidin-3-yl}-piperidin-2-onetrifluoroacetate], for which the IC50 came to 0.141 µM.
On the same count and under the same terms, as for `N[C@H]1CN(c2cc(N3CCS(=O)(=O)CC3)ncn2)C[C@@H]1N1CCCC1=O` [Example 69, 1-((3S,4S)-4-Amino-1-[6-(1,1-dioxo-6-thiomorpholin-4-yl)-pyrimidin-4-yl]-pyrrolidin-3-yl)pyrrolidin-2-onedihydrochloride], the figure is 1.06 µM; as for `N[C@H]1CN(c2ncnc(N3CCc4sccc4C3)n2)C[C@@H]1N1CCCCC1=O` [Example 71, 1-{(3S,4S)-4-Amino-1-[4-(6,7-dihydro-4H-thieno[3,2-c]pyridine-5-yl)-[1,3,5]triazin-2-yl]-pyrrolidin-3-yl}-piperidin-2-onetrifluoroacetate], 0.139 µM; as for `N[C@H]1CN(c2cc(NC3CC3)ncn2)C[C@@H]1N1CCCCC1=O` [Example 73, 1-[(3S,4S)-4-Amino-1-(6-cyclopropylamino-pyrimidin-4-yl)-pyrrolidin-3-yl]-piperidin-2-onedihydrochloride], 0.0742 µM.
`N[C@H]1CN(c2cc(NC3CC3)ncn2)C[C@@H]1N1CCCC1=O` [Example 74, 1-((3S,4S)-4-Amino-1-(6-cyclopropylamino-pyrimidin-4-yl)pyrrolidin-3-yl)pyrrolidin-2-onetrihydrochloride]: the IC50 is 1.4 µM.
On the same count and under the same terms, as for `N[C@H]1CN(c2ncnc(NC3CCCCC3)n2)C[C@@H]1N1CCCCC1=O` [Example 75, 1-[(3S,4S)-4-Amino-1-(4-cyclohexylamino-[1,3,5]triazin-2-yl)-pyrrolidin-3-yl]-piperidin-2-onetrifluoroacetate], the figure is 0.169 µM; as for `N[C@H]1CN(c2ncnc(N3CCc4nocc4C3)n2)C[C@@H]1N1CCCCC1=O` [Example 76, 1-{(3S,4S)-4-Amino-1-[4-(6,7-dihydro-4H-isoxazolo[4,3-c]pyridine-5-yl)-[1,3,5]triazin-2-yl]-pyrrolidin-3-yl}-piperidin-2-one trifluoroacetate], 0.0237 µM; as for `N[C@H]1CN(c2cc(N3CCc4nocc4C3)nc(C(F)(F)F)n2)C[C@@H]1N1CC(F)(F)CCC1=O` [Example 77, 1-{(3S,4S)-4-amino-1-[6-(6,7-dihydro-4H-isoxazolo[4,3-c]pyridin-5-yl)-2-trifluoromethyl-pyrimidin-4-yl]-pyrrolidin-3-yl}-5,5-difluoro-piperidin-2-one], 0.0335 µM.
On the same count and under the same terms, with `N[C@H]1CN(c2cc(N3CCc4nocc4C3)nc(C(F)(F)F)n2)C[C@@H]1N1CCCCC1=O` [Example 78, 1-((3S,4S)-4-amino-1-(6-(6,7-dihydroisoxazolo[4,3-c]pyridin-5(4H)-yl)-2-(trifluoromethyl)pyrimidin-4-yl)pyrrolidin-3-yl)piperidin-2-one] the figure was 0.0394 µM.
The same measure, in the same setting: as for `N[C@H]1CN(c2ncnc(N3CCc4nocc4C3)c2F)C[C@@H]1N1CCCCC1=O` [Example 79, 1-((3S,4S)-4-amino-1-(6-(6,7-dihydroisoxazolo[4,3-c]pyridin-5(4H)-yl)-5-fluoropyrimidin-4-yl)pyrrolidin-3-yl)piperidin-2-one], the figure is 0.0617 µM; as for `N[C@H]1CN(c2cc(-c3ccccc3)ncn2)C[C@@H]1N1CC(F)(F)CCC1=O` [Example 82, 1-((3S,4S)-4-amino-1-(6-phenylpyrimidin-4-yl)pyrrolidin-3-yl)-5,5-difluoropiperidin-2-one trifluoroacetate], 0.0288 µM; as for `Cc1nc(-c2ccccc2)cc(N2C[C@H](N)[C@@H](N3CC(F)(F)CCC3=O)C2)n1` [Example 83, 1-((3S,4S)-4-amino-1-(2-methyl-6-phenylpyrimidin-4-yl)pyrrolidin-3-yl)-5,5-difluoropiperidin-2-one], 0.0339 µM.
As for `N[C@H]1CN(c2ncnc(-c3ccccc3)n2)C[C@@H]1N1CC(F)(F)CCC1=O` [Example 84, 1-((3S,4S)-4-amino-1-(4-phenyl-1,3,5-triazin-2-yl)pyrrolidin-3-yl)-5,5-difluoropiperidin-2-one trifluoroacetate], the IC50 worked out at 0.0387 µM.
Same read-out and setting: with `N[C@H]1CN(c2ncnc(-c3ccccc3)n2)C[C@@H]1N1CCCCC1=O` [Example 85, 1-[(3S,4S)-4-Amino-1-(4-phenyl-[1,3,5]triazin-2-yl)-pyrrolidin-3-yl]-piperidin-2-one hydrochloride] the figure was 0.0591 µM; with `COc1ccc(-c2cc(N3C[C@H](N)[C@@H](N4CCCCC4=O)C3)ncn2)cc1` [Example 86, 1-{(3S,4S)-4-Amino-1-[6-(4-methoxy-phenyl)-pyrimidin-4-yl]-pyrrolidin-3-yl}-piperidin-2-one hydrochloride], 0.0553 µM.
As for `COc1ccc(-c2cc(N3C[C@H](N)[C@@H](N4CCCCC4=O)C3)ncn2)cn1` [Example 87, 1-{(3S,4S)-4-Amino-1-[6-(6-methoxy-pyridin-3-yl)-pyrimidin-4-yl]pyrrolidin-3-yl}-piperidin-2-one dihydrochloride], the IC50 turned out to be 0.0386 µM.
Still for that read-out and setting: with `N[C@H]1CN(c2cc(Oc3cccc(F)c3)ncn2)C[C@@H]1N1CCCCC1=O` [Example 88, 1-((3S,4S)-4-amino-1-(6-(3-fluorophenoxy)pyrimidin-4-yl)pyrrolidin-3-yl)piperidin-2-one] the figure was 0.314 µM; with `CCCOc1cc(N2C[C@H](N)[C@@H](N3CCCCC3=O)C2)ncn1` [Example 89, 1-((3S,4S)-4-Amino-1-(6-propoxypyrimidin-4-yl)pyrrolidin-3-yl)piperidin-2-one trifluoroacetate], 0.318 µM; with `CCC[C@H](C)Oc1cc(N2C[C@H](N)[C@@H](N3CCCCC3=O)C2)ncn1` [Example 90, 1-((3S,4S)-4-Amino-1-(6-((S)-pentan-2-yloxy)pyrimidin-4-yl)pyrrolidin-3-yl)piperidin-2-onetrifluoroacetate], 1.03 µM.

These data come from patent US7485641B2, “Substituted 3-amino-pyrrolidino-4-lactams” (Pfizer, Inc., priority 2006, dated 2009).
